The values that follow come from patent US20250223307A1, “MDM2/MDMX DOUBLE-TARGET INHIBITOR COMPOUND, PRODRUG, PHARMACEUTICAL COMPOSITION, AND PREPARATION METHOD THEREFOR AND USE THEREOF” (GLOBAL HEALTH DRUG DISCOVERY INSTITUTE, priority 2022, published 2025).

For assay [1], the target named is MDM2 (Homo sapiens, UniProt Q00987). In words: HTRF test: inhibition of MDM2-p53 protein binding.
The subject of assay [2] is Blood cancer cells RS4; 11. In words: CellTiter Glo test: growth inhibition of cells. The settings on record: Homo sapiens, 11 cells, 72 h, cell viability. Type of assay: cell-based.
The target of assay [3] is T1, MDMX (Homo sapiens, UniProt O15151).
T1 sequence (O15151 2-134): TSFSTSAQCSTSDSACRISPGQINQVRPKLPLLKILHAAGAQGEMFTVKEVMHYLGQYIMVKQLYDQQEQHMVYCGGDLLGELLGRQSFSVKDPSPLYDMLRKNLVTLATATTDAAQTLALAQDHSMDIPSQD
As to the kind of experiment: HTRF test: inhibition of MDMX-p53 protein binding. Background: TR-FRET usually uses a lanthanide donor and a delayed reading to cut background.

Chain of MDM2 (Q00987 2-138): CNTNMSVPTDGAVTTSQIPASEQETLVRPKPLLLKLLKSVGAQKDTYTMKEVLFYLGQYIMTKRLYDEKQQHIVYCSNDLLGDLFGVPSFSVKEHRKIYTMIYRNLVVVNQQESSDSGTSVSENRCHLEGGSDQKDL

The term IC50 denotes the point on the concentration scale where inhibition reaches its midpoint. Higher therefore signals lower potency. With `O=C1N/C(=C\c2c[nH]c3c(F)c(Cl)ccc23)C(=O)N1Cc1cc(F)c(Cl)cc1F` [Compound 100, (Z)-3-(4-chloro-2,5-difluorobenzyl)-5-((6-chloro-7-fluoro-1H-indol-3-yl)methylene)imidazolidine-2,4-dione], the IC50 in assay [1] was under 10 nM; in assay [2] it was at most 1000 nM; in assay [3], 10 to 100 nM.
Taken in the same sequence, the figures for `O=C1N/C(=C\c2c[nH]c3c(OCF)c(Cl)ccc23)C(=O)N1Cc1ccc(Cl)cc1` [Compound 12, (Z)-5-((6-chloro-7-(fluoromethoxyl)-1H-indol-3-yl)methylene)-3-(4-chlorobenzyl)imidazolidine-2,4-dione] were 10 to 100 nM, over 10000 nM and 10 to 100 nM.
Taken in the same sequence, the figures for `N#Cc1ccc(C(CO)N2C(=O)N/C(=C\c3c[nH]c4c(F)c(Cl)ccc34)C2=O)cc1` (stereo not drawn) [Compound 85, (Z)-4-(1-(4-((6-chloro-7-fluoro-1H-indol-3-yl)methylene)-2,5-dioxoimidazolidin-1-yl)-2-hydroxyethyl)benzonitrile] were under 10 nM, at most 1000 nM and under 10 nM.
In the same order, the values of `Cc1c(Cl)ccc2c(/C=C3\NC(=O)N(C(C(=O)NCCO)c4ccc(C#N)c(F)c4)C3=O)c[nH]c12` (stereo not drawn) [Compound 67, (Z)-2-(4-((6-chloro-7-methyl-1H-indol-3-yl)methylene)-2,5-dioxoimidazolidin-1-yl)-2-(4-cyano-3-fluorophenyl)-N-(2-hydroxyethyl)acetamide] are under 10 nM, at most 1000 nM and under 10 nM.
As for `O=C1N/C(=C\c2c[nH]c3c(F)c(Cl)ccc23)C(=O)N1Cc1cc(F)c(Cl)c(F)c1` [Compound 106, (Z)-3-(4-chloro-3,5-difluorobenzyl)-5-((6-chloro-7-fluoro-1H-indol-3-yl)methylene)imidazolidine-2,4-dione], the IC50 was 10 to 100 nM in assay [1], at most 1000 nM in assay [2] and 10 to 100 nM in assay [3].
As for `Cc1c(Cl)ccc2c(/C=C3\NC(=O)N([C@@H](CO)c4ccc(C#N)cc4)C3=O)c[nH]c12` [Compound 96, (R,Z)-4-(1-(4-((6-chloro-7-methyl-1H-indol-3-yl)methylene)-2,5-dioxoimidazolidin-1-yl)-2-hydroxyethyl)benzonitrile], the IC50 in assay [1] is under 10 nM; in assay [2], at most 1000 nM; in assay [3], under 10 nM.
Regarding `Cc1c(Cl)ccc2c(/C=C3\NC(=O)N(C(CO)c4ccc(Cl)c(F)c4)C3=O)c[nH]c12` (stereo not drawn) [Compound 78, (Z)-3-(1-(4-chloro-3-fluorophenyl)-2-hydroxyethyl)-5-((6-chloro-7-methyl-1H-indol-3-yl)methylene)imidazolidine-2,4-dione], the IC50 in assay [1] was 10 to 100 nM; in assay [2] it was at most 1000 nM; in assay [3] it was 10 to 100 nM.
With `O=C1N/C(=C\c2c[nH]c3c(F)c(Cl)ccc23)C(=O)N1C(CO)c1ccc(Cl)cc1F` (stereo not drawn) [Compound 99, (Z)-3-(1-(4-chloro-2-fluorophenyl)-2-hydroxyethyl)-5-((6-chloro-7-fluoro-1H-indol-3-yl)methylene)imidazolidine-2,4-dione], the IC50 in assay [1] is 10 to 100 nM; in assay [2] it was at most 1000 nM; in assay [3], 10 to 100 nM.
Consider `Cc1c(Cl)ccc2c(/C=C3\NC(=O)N(C(C(=O)NC(CO)(CO)CO)c4ccc(F)c(F)c4)C3=O)c[nH]c12` (stereo not drawn) [Compound 30, (Z)-2-(4-((6-chloro-7-methyl-1H-indol-3-yl)methylene)-2,5-dioxoimidazolidin-1-yl)-2-(3,4-difluorophenyl)-N-(1,3-dyhydroxl-2-(hydroxymethyl)-2-propyl)acetamide], for which the IC50 in assay [1] was under 10 nM; in assay [2], at most 1000 nM; in assay [3] it was under 10 nM.
Turning to `O=C1N/C(=C\c2c[nH]c3c(F)c(Cl)ccc23)C(=O)N1Cc1ccc(F)c(F)c1` [Compound 10, (Z)-5-((6-chloro-7-fluoro-1H-indol-3-yl)methylene)-3-(3,4-difluorobenzyl)imidazolidine-2,4-dione], the IC50 lay within 10 to 100 nM in assay [1], 1000 to 10000 nM in assay [2] and 10 to 100 nM in assay [3].
With `C#Cc1ccc(CN2C(=O)N/C(=C\c3c[nH]c4c(F)c(Cl)ccc34)C2=O)cc1` [Compound 17, (Z)-5-((6-chloro-7-fluoro-1H-indol-3-yl)methylene)-3-(4-acetenylbenzyl)imidazolidine-2,4-dione], the IC50 in assay [1] was 10 to 100 nM; in assay [2], at most 1000 nM; in assay [3], 10 to 100 nM.
As for `Cc1c(Cl)ccc2c(/C=C3\NC(=O)N(C(C(=O)NCC45CCC(O)(CC4)CC5)c4ccc(F)c(F)c4)C3=O)c[nH]c12` (stereo not drawn) [Compound 64, (Z)-2-(4-((6-chloro-7-methyl-1H-indol-3-yl)methylene)-2,5-dioxoimidazolidin-1-yl)-2-(3,4-difluorophenyl)-N-((4-hydroxylbicyclo[2.2.2]octan-1-yl)methyl)acetamide], the IC50 in assay [1] was under 10 nM; in assay [2], at most 1000 nM; in assay [3], under 10 nM.
In the case of `N#Cc1ccc(C(C(=O)NC(CO)CO)N2C(=O)N/C(=C\c3c[nH]c4c(F)c(Cl)ccc34)C2=O)cc1` (stereo not drawn) [Compound 29, (Z)-2-(4-((6-chloro-7-fluoro-1H-indol-3-yl)methylene)-2,5-dioxoimidazolidin-1-yl)-2-(4-cyanophenyl)-N-(1,3-dihydroxypropan-2-yl)acetamide], the IC50 in assay [1] is under 10 nM; in assay [2] it was 1000 to 10000 nM; in assay [3] it was under 10 nM.
With `O=C(NC(CO)CO)C(c1ccc(Cl)cc1)N1C(=O)N/C(=C\c2c[nH]c3c(F)c(Cl)ccc23)C1=O` (stereo not drawn) [Compound 28, (Z)-2-(4-((6-chloro-7-fluoro-1H-indol-3-yl)methylene)-2,5-dioxoimidazolidin-1-yl)-2-(4-chlorophenyl)-N-(1,3-dihydroxypropan-2-yl)acetamide], the IC50 in assay [1] was under 10 nM; in assay [2] it was at most 1000 nM; in assay [3], under 10 nM.
Regarding `O=C1N/C(=C\c2c[nH]c3c(F)c(Cl)ccc23)C(=O)N1C(CO)c1cc(F)c(Cl)c(F)c1` (stereo not drawn) [Compound 107, (Z)-3-(1-(4-chloro-3,5-difluorophenyl)-2-hydroxyethyl)-5-((6-chloro-7-fluoro-1H-indol-3-yl)methylene)imidazolidine-2,4-dione], the IC50 in assay [1] is 10 to 100 nM; in assay [2] it was at most 1000 nM; in assay [3], 10 to 100 nM.
Take `N#Cc1ccc([C@H](CO)N2C(=O)N/C(=C\c3c[nH]c4cc(Cl)ccc34)C2=O)cc1` [Compound 49, (R,Z)-4-(1-(4-((6-chloro-1H-indol-3-yl)methylene)-2,5-dioxoimidazolidin-1-yl)-2-hydroxyethyl)benzonitrile]: the IC50 in assay [1] is under 10 nM; in assay [2] it was at most 1000 nM; in assay [3], 10 to 100 nM.
